# Reference: US11793797B2, “Uses of a lysyl oxidase-like 2 inhibitor” (PHARMAKEA, INC., priority 2016, dated 2023)
# Read-outs that look alike come from different tables or passages of the source.
# What was measured:
# [1] = biological target: human LOXL2 (Homo sapiens (Human), UniProt Q9Y4K0); assay: Human LOXL2 CCM assay (Amplex Red amine oxidase activity); format: biochemical
# Method: Human LOXL2/CHO and human LOX/HEK stable cell lines were cultured under normal growth conditions in 15 cm tissue culture plates until cells were ˜80% confluent. Cells were then washed with PBS before the addition of 25-30 mL serum-free media (Phenol red-free DMEM/F12 mix w/glutamax containing pen/strep, 10-100 μM CuCl2±0.1% BSA). Cells were incubated at 37° C., 5% CO2 in serum-free media for 40-48 hours before the conditioned media was removed and centrifuged at 2000 rpm for 5 min at 4° C. to pellet cells/debris. The media was concentrated 10-20× using 10-30 MWCO centriprep columns according to the manufacturer's instructions (EMD Millipore, Billerica, Mass.) before aliquoting and storing at −80° C.
# LOXL2 amine oxidase activity was evaluated by measuring Amplex Red fluorescence using 10-20× concentrated conditioned media (non BSA-containing) from CHO cells stably expressing human LOXL2. To assay for amine oxidase activity, 10 μL of the concentrated conditioned media was incubated with 2 μL of test compound in DMSO and 73 μL Assay Buffer (50 mM Borate Buffer, pH8) for 2 h at 37° C. After the 2 h incubation, 5 μL of 10 mM 1,5-Diaminopentane (DAP) diluted in Assay Buffer and 10 μL of Amplex Red Mix (8.5 μL Assay Buffer+0.5 μL of 10 mM Amplex Red+1 μL of 500 U/ml Horseradish Peroxidase) were added and the plate mixed and immediately placed on the FlexStation for fluorescence measurements. Fluorescence was read in kinetic mode every 2 min for 0.5-1 hour at excitation=544 and emission=590. The amine oxidase activity was calculated from the slope of the linear portion of the curve. Wells containing vehicle (DMSO) represented maximum activity and were set to 0% inhibition and wells containing 100 μM βAPN (3-aminopropionitrile) represented no activity and were set to 100% inhibition.
# [2] = tested on: collagen induced arthritis (CIA); conditions: in vivo CIA mouse model; cited from earlier work
# [3] = tested on: bleomycin-induced lung fibrosis; assay: Mouse oropharyngeal bleomycin model of lung fibrosis; format: in vivo
# Method: Lung fibrosis was induced in C57Bl/6 male mice by administering bleomycin (0.1-4 U/kg) via oropharyngeal instillation. Mice were either pretreated with vehicle or test compound orally, intraperitoneally, intravenously or subcutaneously either prophylactically (1 day to 1 hour before bleomycin instillation) or therapeutically (7-14 days post bleomycin instillation). The route and frequency of dosing were based on previously determined pharmacokinetic properties for the LOXL2 inhibitor in mouse. After bleomycin instillation, animals were monitored daily for weight loss and clinical signs for 14-28 days prior to sacrifice. Animals were euthanized at study termination and weighed. […] For histological examination, lung slices were stained with Masson's trichrome or picrosirius red to measure fibrillar collagen as an indicator of fibrosis and an Ashcroft score of lung fibrosis and inflammatory damage determined. […] After the acid hydrolysis, 25-100 μL of the supernatant is dried down, resuspended in 25 μL water and the hydroxyproline content determined by the addition of 0.5 mL Chloramine T solution (140 mg Chloramine T in 6.5 ml ddH2O+1 ml n-propanol+2.5 mL 1M sodium acetate) and incubation at room temperature for 20 min. […]
# Fibrotic status was assessed histologically on Day 21 using Ashcroft score as a primary measure of lung fibrosis. […]
# [4] = Pharmacokinetic study of Compound 1 or 2 in rat; format: in vivo; conditions: male
# Method: (§1) Blood samples were taken from each rat (approximately 0.3 mL total blood per time point) at pre-dose, 5 or 15 min and then at various time points up to 24 hours post-dose. Samples were collected on wet ice in tubes containing potassium EDTA (w/v in normal saline; BD Biosciences, Franklin Lakes, N.J. Plasma samples, prepared by centrifugation of whole blood, were stored frozen (−80° C.) prior to analysis. All other reagents were of analytical grade.
# (§2) Analysis was performed on an LC-MS/MS systems comprised of a Sciex API-4000Qt tandem mass spectrometer (AB Sciex, Foster City, Calif.) interfaced to an HPLC system consisting of a single Agilent 1200 Series Quaternary system pump (Santa Clara, Calif.) and a LEAP PAL auto-injector (Greenville, S.C.). Analyses were performed using an Agilent Zorbax SB-C8 column (2.1×50 mm; 5 μm) for chromatographic separations at room temperature.
# [5] = in vivo; conditions: dog
# Method: as §1, with “dog” for “rat”, “1” for “0.3”
# as §2
# [6] = tested on: MDA-MB-435-GFP cells; assay: Mouse orthotopic breast cancer model; format: in vivo; conditions: oral 60 mg/kg/day, at 4 weeks, nude mice
# Method: Tumor stocks were made by subcutaneously (s.c.) injecting MDA-MB-435-GFP cells at a concentration of 5×10^6 cells/100 μL into the flank of nude mice. When the s.c. tumors reach 50-100 mm^3, tumors were harvested and cut into 1 mm^3 fragments. Two tumor fragments were transplanted into the mammary fat pad of each mouse. […] Docetaxel was administered at 10 mg/kg intravenously once a week for 4 weeks as a positive control. Tumor size was calculated from a measurement of perpendicular minor dimension (W) and major dimension (L) using the formula (W2×L)×½ with W and L measured using a digital caliper. Mice were sacrificed after 4 weeks.
# [7] = tested on: liver fibrosis in BALB/c.Mdr2-/- mice; assay: Mouse Mdr2 knockout model of biliary fibrosis; format: in vivo; conditions: a model of liver fibrosis
# Method: Liver disease develops in the BALB/c.Mdr2−/− mouse model with bridging fibrosis/early cirrhosis between 8 and 12 weeks of age (Ikenaga et al. 2015 Am J Pathology, 185: 325-334). […] At the end of the study, mice were anesthetized with isoflurane (1.5% v/v) via precise vaporizer. After laparotomy, portal pressure was measured directly by inserting a high-fidelity pressure catheter into the portal vein and measuring pressure signals for 5 minutes. Serum was collected for analysis of liver (ALT, AST, ALP, and bilirubin) and kidney (creatinine) biochemistries. Part of the liver was fixed in 10% neutral buffered formalin for histopathological analysis of inflammation, necrosis and fibrosis by H&E staining and picrosirius red staining. Collagen area fraction was measured from picrosirius red stained images using an algorithm that separates the red stained collagen from non-specific staining through color subtraction and thresholding of the processed image. Sections were analyzed in random order using the same threshold value for each set. Data were deconvolved after analysis to identify group assignment. Collagen content was determined from a portion of the liver tissue using hydroxyproline analysis.
# [8] = PO, 0.5% MC, 30 mg/kg, fasted, AUC0-t PO/AUC0-t IV
# [9] = plasma, iv, 2 mg/kg, saline, fed
# Chain of human LOXL2 (Q9Y4K0 26-774): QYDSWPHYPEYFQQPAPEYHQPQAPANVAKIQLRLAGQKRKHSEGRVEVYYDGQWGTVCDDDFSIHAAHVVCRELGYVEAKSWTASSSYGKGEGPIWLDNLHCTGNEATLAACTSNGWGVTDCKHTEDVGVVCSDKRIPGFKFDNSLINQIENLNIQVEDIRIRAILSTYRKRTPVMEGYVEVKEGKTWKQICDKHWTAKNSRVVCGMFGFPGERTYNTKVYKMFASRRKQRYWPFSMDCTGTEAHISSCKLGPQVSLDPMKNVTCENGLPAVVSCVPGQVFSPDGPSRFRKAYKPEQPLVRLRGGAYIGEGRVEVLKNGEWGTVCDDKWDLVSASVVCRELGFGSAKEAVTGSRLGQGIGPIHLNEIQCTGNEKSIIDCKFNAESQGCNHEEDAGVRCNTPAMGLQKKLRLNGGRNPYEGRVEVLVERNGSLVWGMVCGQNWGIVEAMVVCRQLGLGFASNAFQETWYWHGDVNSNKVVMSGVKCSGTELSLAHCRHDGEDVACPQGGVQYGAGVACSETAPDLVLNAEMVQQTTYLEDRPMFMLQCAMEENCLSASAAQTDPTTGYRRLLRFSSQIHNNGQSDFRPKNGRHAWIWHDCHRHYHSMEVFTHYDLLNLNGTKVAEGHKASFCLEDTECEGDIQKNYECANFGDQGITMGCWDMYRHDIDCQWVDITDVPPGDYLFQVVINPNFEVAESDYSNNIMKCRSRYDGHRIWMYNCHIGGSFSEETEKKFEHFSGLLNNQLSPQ
compound,measurement,setting,value
"NCc1cc(Oc2cccc(C(=O)N3C[C@H](O)[C@@H](F)C3)c2)nc(C(F)(F)F)c1 (single isomer, unassigned) [Compound Ent-1]",IC50,"[1]; human LOXL2 CCM (non BSA-containing), 2 h preincubation at 37° C., read-out: IC50",< 300 nM
"N#CCCN [BAPN, β-aminopropionitrile]",effect on collagen induced arthritis,[2],ameliorated collagen induced arthritis (CIA)
"NCc1cc(Oc2cccc(C(=O)N3C[C@@H](O)[C@H](F)C3)c2)nc(C(F)(F)F)c1 [Compound 1, (R,R)-trans-(3-((4-(aminomethyl)-6-(trifluoromethyl)pyridin-2-yl)oxy)phenyl)(3-fluoro-4-hydroxypyrrolidin-1-yl)methanone]","Ashcroft score, mean value after treatment","[3]; prophylactic, oral 60 mg/kg/day from Day -1, Day 14, reduced from mean 3.1",0.8
same,normalization of Ashcroft score,"[3]; recovery study, oral 60 mg/kg starting Day 14 after bleomycin, lungs harvested Day 28",73%
same,AUC0-t hr/Dose,"[4]; IV, saline, 2 mg/kg, fed",0.07
same,AUC0-t hr/Dose,"[4]; PO, 0.5% MC, 30 mg/kg, fasted",0.05
same,F(%),[4]; [8],71%
same,AUC0-t hr/Dose,"[4]; PO, capsule, 15 mg/kg, fasted",0.05
same,Cmax,"[4]; plasma, iv, 2 mg/kg, IV, saline, 2 mg/kg, fed, read-out: Cmax",630 ng/mL
same,Tmax,"[4]; plasma, iv, 2 mg/kg, IV, saline, 2 mg/kg, fed, read-out: Tmax",4.98 min
same,AUC(0-t),[4]; [9],140 ng·h/mL
same,bioavailability,[4]; [9],100%
same,bioavailability,"[4]; plasma, oral, 15 mg/kg, capsule, fasted, AUC0-t PO/AUC0-t IV",69%
same,Cmax,"[4]; plasma, po, 15 mg/kg, PO, capsule, 15 mg/kg, fasted, read-out: Cmax",1200 ng/mL
same,Tmax,"[4]; plasma, po, 15 mg/kg, PO, capsule, 15 mg/kg, fasted, read-out: Tmax",36 min
same,AUC(0-t),"[4]; plasma, po, 15 mg/kg, capsule, fasted",740 ng·h/mL
same,AUC(0-t),"[4]; plasma, po, 30 mg/kg, 0.5% MC, fasted",1400 ng·h/mL
same,Cmax,"[4]; plasma, po, 30 mg/kg, PO, 0.5% MC, 30 mg/kg, fasted, read-out: Cmax",1700 ng/mL
same,Tmax,"[4]; plasma, po, 30 mg/kg, PO, 0.5% MC, 30 mg/kg, fasted, read-out: Tmax",15 min
same,emesis (clinical observations),[5]; po,Emesis was prevalent in all dose groups
same,AUC0-t hr/Dose,"[5]; po, 100 mg/kg",0.85
same,bioavailability,"[5]; male, beagle, 100 mg/kg, F(%)",283%
same,Tmax,"[5]; male, beagle, po, 100 mg/kg",78 min
same,AUC(0-t),"[5]; male, beagle, po, 100 mg/kg, AUC(0-t hr)",85000 ng·h/mL
same,Cmax,"[5]; male, beagle, po, 100 mg/kg",27000 ng/mL
same,reduction in tumor volume,[6],35%
same,IC50,"[1]; CCM containing BSA, read-out: IC50, LOXL2 (CCM containing BSA)",116 nM
"NCc1cc(Oc2cccc(C(=O)N3C[C@@H](O)[C@H](F)C3)c2)nc(C(F)(F)F)c1 [Compound 2, (R,R)-trans-(3-((4-(aminomethyl)-6-(trifluoromethyl)pyridin-2-yl)oxy)phenyl)(3-fluoro-4-hydroxypyrrolidin-1-yl)methanone]",AUC0-t hr/Dose,"[4]; PO, 0.5% MC, 30 mg/kg, fasted",0.07
same,AUC(0-t hr),"[4]; PO, 0.5% MC, 30 mg/kg, fasted",2000 ng·h/mL
same,Cmax,"[4]; PO, 0.5% MC, 30 mg/kg, fasted",2600 ng/mL
same,Tmax,"[4]; PO, 0.5% MC, 30 mg/kg, fasted",25.2 min
same,F(%),[4]; [8],95%
same,emesis (clinical observations),[5]; po,Emesis was prevalent in all dose groups
same,tolerability by dosing form (clinical observations),[5]; po,oral capsule and potentially the tablet were better tolerated
same,Cmax,"[5]; male, beagle, po, 300 mg/kg",143000 ng/mL
same,Tmax,"[5]; male, beagle, po, 300 mg/kg, Tmax",18 min
"NCc1cc(Oc2cccc(C(=O)N3C[C@@H](O)[C@H](F)C3)c2)nc(C(F)(F)F)c1 [Compound I, (R,R)-trans-(3-((4-(aminomethyl)-6-(trifluoromethyl)pyridin-2-yl)oxy)phenyl)(3-fluoro-4-hydroxypyrrolidin-1-yl)methanone]",fibrosis as area fraction of Picrosirius red (collagen) positive staining,[7],significantly reduced fibrosis
same,"potency relative to the (S,S)-isomer",[1]; in vitro assays,less than 2 fold
